Assay results: ChEMBL document CHEMBL1201862, “PubChem BioAssay data set” (2004)
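Five concentrations, 48 hours, 96-well plates. GI50: concentration for 50% inhibition of growth.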 The source made the active and inactive calls. Rule as the data show it: active = GI50 up to about 1.1 µM and inactive = higher.

How the values were obtained:
Test in all cases: growth of human tumour cells (NCI), 48 h
TK-10 = tested on: TK-10
NCI-H23 = tested on: NCI-H23
IGROV-1 = tested on: IGROV-1
SNB-75 = tested on: SNB-75
CCRF-CEM = tested on: CCRF-CEM
COLO 205 = tested on: COLO 205
SF-268 = tested on: SF-268
M19-MEL = tested on: M19-MEL
SF-295 = tested on: SF-295
HOP-92 = tested on: HOP-92
A549 = tested on: A549
HCC 2998 = tested on: HCC 2998
LOX IMVI = tested on: LOX IMVI
OVCAR-8 = tested on: OVCAR-8
HOP-62 = tested on: HOP-62
NCI-H522 = tested on: NCI-H522
BT-549 = tested on: BT-549
U-251 = tested on: U-251
A498 = tested on: A498
SR = tested on: SR

Measured: GI50

O=C(c1ccccc1)c1oc2ccc(Br)cc2c1-c1cnn(-c2ccccc2)c1
inactive: TK-10 > 10 µM | NCI-H23 > 100 µM | IGROV-1 > 100 µM | SNB-75 > 100 µM | CCRF-CEM > 100 µM | COLO 205 > 100 µM | SF-268 > 100 µM | M19-MEL > 100 µM | SF-295 > 100 µM | HOP-92 > 100 µM | A549 > 10 µM | HCC 2998 > 100 µM | LOX IMVI > 100 µM | OVCAR-8 > 10 µM | HOP-62 > 100 µM | NCI-H522 7.48 µM

Nc1c2cc3ccc2nc2ccc(cc12)OCCOCCOCCOCCOCCOCCO3
inactive: TK-10 > 10 µM | BT-549 > 10 µM | NCI-H23 > 10 µM | IGROV-1 > 10 µM | U-251 > 10 µM | SNB-75 > 10 µM | CCRF-CEM > 10 µM | COLO 205 > 10 µM | SF-268 > 10 µM | SF-295 > 10 µM | HOP-92 > 10 µM | A549 > 10 µM | HCC 2998 > 10 µM | LOX IMVI > 10 µM | OVCAR-8 > 10 µM | HOP-62 > 10 µM | A498 > 10 µM | SR > 10 µM | NCI-H522 > 10 µM

C/C(=N/NC(=S)N1CCCCC1)c1ccccc1O
inactive: TK-10 > 31.6 µM | BT-549 > 100 µM | NCI-H23 > 31.6 µM | IGROV-1 > 41.2 µM | U-251 > 31.6 µM | SNB-75 > 10 µM | CCRF-CEM 21.7 µM | COLO 205 23.4 µM | SF-268 21.5 µM | SF-295 > 31.6 µM | HOP-92 > 31.6 µM | A549 > 31.6 µM | HCC 2998 > 31.6 µM | LOX IMVI > 31.6 µM | OVCAR-8 > 31.6 µM | HOP-62 > 100 µM | A498 > 100 µM | SR > 10 µM | NCI-H522 26.5 µM

O=C(N/N=C\c1ccc(Cl)cc1)Nc1cccc2ccccc12
inactive: TK-10 3.32 µM | BT-549 21.7 µM | NCI-H23 9.71 µM | IGROV-1 3.49 µM | U-251 2.96 µM | SNB-75 2.4 µM | CCRF-CEM 7.96 µM | COLO 205 4.75 µM | SF-268 6.44 µM | SF-295 2.52 µM | HOP-92 4.91 µM | A549 6.71 µM | HCC 2998 2.4 µM | LOX IMVI 4.49 µM | OVCAR-8 5.2 µM | HOP-62 2.01 µM | A498 2.67 µM | SR 3.16 µM | NCI-H522 4.83 µM

CCCCN(CCCC)CC(=O)c1ccc2cc(Cl)c3ccccc3c2c1
inactive: TK-10 50 µM | BT-549 19.1 µM | NCI-H23 46.9 µM | IGROV-1 20.9 µM | U-251 19.6 µM | SNB-75 29.8 µM | CCRF-CEM > 100 µM | COLO 205 14.9 µM | SF-268 16.1 µM | SF-295 31 µM | HOP-92 33.5 µM | A549 27.2 µM | HCC 2998 32.1 µM | LOX IMVI 23.4 µM | OVCAR-8 20 µM | HOP-62 50 µM | A498 20.7 µM | SR 16.1 µM | NCI-H522 16.4 µM

O=C1c2ccccc2-c2cccc3ccc(Cc4ccccc4)c1c23
inactive: TK-10 > 100 µM | NCI-H23 > 100 µM | IGROV-1 > 100 µM | U-251 > 100 µM | SNB-75 6.53 µM | CCRF-CEM > 100 µM | COLO 205 > 100 µM | SF-268 > 100 µM | M19-MEL > 100 µM | SF-295 > 100 µM | HOP-92 > 100 µM | A549 > 100 µM | HCC 2998 > 100 µM | OVCAR-8 > 100 µM | HOP-62 > 100 µM | NCI-H522 > 100 µM

COC(=O)C(=O)C(C#N)c1c(Cl)cccc1Cl (configuration not stated)
inactive: TK-10 > 100 µM | NCI-H23 > 100 µM | IGROV-1 > 100 µM | SNB-75 > 100 µM | COLO 205 > 100 µM | SF-268 > 100 µM | M19-MEL > 100 µM | SF-295 > 100 µM | HOP-92 > 100 µM | A549 > 100 µM | LOX IMVI > 100 µM | OVCAR-8 > 100 µM | HOP-62 > 100 µM | A498 > 100 µM | NCI-H522 > 100 µM

c1ccc(C2(c3ccccc3)S/C(=C3/SC(c4ccccc4)(c4ccccc4)c4ccccc43)c3ccccc32)cc1
inactive: TK-10 > 100 µM | BT-549 > 100 µM | NCI-H23 > 100 µM | IGROV-1 > 100 µM | U-251 > 100 µM | SNB-75 > 100 µM | CCRF-CEM > 100 µM | COLO 205 > 100 µM | SF-268 > 100 µM | SF-295 > 100 µM | HOP-92 > 100 µM | A549 > 100 µM | HCC 2998 > 100 µM | LOX IMVI > 100 µM | OVCAR-8 > 100 µM | HOP-62 > 100 µM | A498 > 100 µM | SR > 100 µM | NCI-H522 > 100 µM
